Test results taken from article PMC3404744 (Molecular Pharmaceutics, 2011).

Experiments:
[1] = tested on: pooled human liver microsomes (pHLM); experiment: Glucuronidation kinetic profile in pooled human liver microsomes; format: in vitro ADME; settings: flavonoids 4′-O-glucuronidation, SN-38 glucuronidation
[2] = tested on: 12 recombinant human UGT isoforms; experiment: Phenotyping using 12 recombinant UGTs; format: in vitro ADME; settings: by CLint
UGT1A1 [3] = target: T1, UGT1A1 (Homo sapiens, UniProt P22309); experiment: Glucuronidation kinetics with recombinant human UGT1A1; format: in vitro ADME; settings: for Glucuronide isomers formed by UGT1A1: recombinant UGT1A1
T1 sequence (P22309 26-533): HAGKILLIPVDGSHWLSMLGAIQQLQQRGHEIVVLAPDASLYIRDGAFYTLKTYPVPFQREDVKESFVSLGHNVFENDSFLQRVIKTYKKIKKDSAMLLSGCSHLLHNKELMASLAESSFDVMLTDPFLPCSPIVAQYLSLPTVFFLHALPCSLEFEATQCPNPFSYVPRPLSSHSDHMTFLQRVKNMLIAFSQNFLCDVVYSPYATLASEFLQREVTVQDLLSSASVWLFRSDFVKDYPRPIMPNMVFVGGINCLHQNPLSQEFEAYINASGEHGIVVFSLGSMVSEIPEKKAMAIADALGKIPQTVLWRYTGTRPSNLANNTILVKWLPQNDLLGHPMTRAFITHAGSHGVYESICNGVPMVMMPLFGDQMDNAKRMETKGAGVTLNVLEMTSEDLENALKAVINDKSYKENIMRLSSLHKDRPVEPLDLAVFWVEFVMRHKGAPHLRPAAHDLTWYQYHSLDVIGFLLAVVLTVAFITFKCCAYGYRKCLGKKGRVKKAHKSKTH

[4] = after a standard therapy; cited from earlier work
UGT1A1 [5] = target: T1, UGT1A1; format: in vitro ADME
UGT1A9 = target: T2, UGT1A9 (Homo sapiens, UniProt O60656); experiment: Glucuronidation kinetics with recombinant human UGT1A9; format: in vitro ADME; settings: 10 μM
T2 sequence (O60656 26-530): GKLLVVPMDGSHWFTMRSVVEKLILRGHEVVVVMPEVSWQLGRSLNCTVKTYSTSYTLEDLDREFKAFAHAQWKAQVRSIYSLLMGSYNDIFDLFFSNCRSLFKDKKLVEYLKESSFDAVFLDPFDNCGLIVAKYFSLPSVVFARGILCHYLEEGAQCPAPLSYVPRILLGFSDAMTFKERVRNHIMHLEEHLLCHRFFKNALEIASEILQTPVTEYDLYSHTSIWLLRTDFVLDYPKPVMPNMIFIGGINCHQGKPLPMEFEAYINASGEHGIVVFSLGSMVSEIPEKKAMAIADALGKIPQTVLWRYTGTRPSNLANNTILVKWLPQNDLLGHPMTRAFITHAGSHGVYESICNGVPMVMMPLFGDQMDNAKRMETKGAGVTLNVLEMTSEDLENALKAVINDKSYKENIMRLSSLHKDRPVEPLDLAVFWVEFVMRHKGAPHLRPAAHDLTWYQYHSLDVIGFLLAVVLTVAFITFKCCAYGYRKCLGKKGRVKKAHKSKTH

| Compound | Pattern of kinetic profile [1] | Main isoforms glucuronidating the flavonoid [2] | Km for recombinant UGT1A1 (4′-O-glucuronidation) compared with pooled HLM (UGT1A1 [3]) | Glucuronide isomers formed by UGT1A1 (UGT1A1 [3]) | In vivo concentration [4] | Glucuronidation in pHLM correlated with UGT1A1 activities (RAF approach) (UGT1A1 [5]) | UGT1A9 activity, folds less than that of UGT1A1 (UGT1A9) |
| --- | --- | --- | --- | --- | --- | --- | --- |
| O=c1c(O)c(-c2ccc(O)cc2)oc2ccc(O)cc12 [364′THF, 3,6,4′-trihydroxyflavone] | substrate inhibition | UGT1A1, 1A7 and 1A9 | essentially identical | 3-O-, 6-O-, and 4′-O-glucuronide |  |  |  |
| CCc1c2c(nc3ccc(O)cc13)-c1cc3c(c(=O)n1C2)COC(=O)[C@]3(O)CC [SN-38, 7-ethyl-10-hydroxycamptothecin] | substrate inhibition |  |  |  | < 0.1 µM | 103 ± 8% | ~5 folds |
| O=c1c(O)c(-c2ccc(O)c(O)c2)oc2ccccc12 [33′4′THF, 3,3′,4′-trihydroxyflavone] | substrate inhibition | UGT1A1, 1A7 and 1A9 | essentially identical | 3′-O- and 4′-O-glucuronide |  |  |  |
